# Patent publication US9316631B1, “ER-stress inducing compounds and methods of use thereof” (Whitehead Institute for Biomedical Research, priority 2012, dated 2016)
# Where two headings read alike, the source gives them in different places.
# What was measured:
# [1] = test system: IDMS cells (HMLE_shEcad, HMLE_Twist) versus control HMLE_shGFP cells; assay: Dose-response cell survival, ATP-based luminescence assay, HMLE cells; parameters: species or system human; conditions: for killing of IDMS cells relative to control HMLE cells: 3 days, FIG. 3B, 3C
# Method: (B) Dose response curves of HMLE_shGFP, HMLE_shEcad and HMLE_Twist cells treated with various concentrations of Cmp302, Cmp308 and Dev4, respectively for 3 days. Cell survival was determined using an ATP-based luminescence assay.
# (B) Dose-response curves of HMLE_shGFP, HMLE_shEcad and HMLE_Twist cells treated with various concentrations of Thapsigargin, DTT and A23187 for 3 days. Cell survival was determined using an ATP-based luminescence assay.
# (B) Dose-response curves indicating viability of Dev2-treated cell lines
# (§1) Cells (3000/well) were plated in 100 μl per well in 96-well plates. One day (24 hr) after seeding, compounds were added in 8 different doses at three replicates per dose for each cell line. Cell viability was measured after 72 hr with the CellTiter-Glo […] Assay (Promega). Paclitaxel, Doxorubicin, Tunicamycin, Thapsigargin, A23187 and DTT were purchased from Sigma Aldrich. Cmp302 and Cmp308 were purchased from Biointerscreen.
# [2] = test system: UPR signaling in HMLER_shGFP and HMLER_Twist cells; assay: UPR signaling (Western blot, XBP1 RT-PCR, ATF6 reporter, qPCR); format: cell-based, human
# Method: (A) Expression of UPR pathway components in HMLER_shGFP and HMLER_Twist cells that were treated with Dev2, Cmp302, Dev4 or DMSO solvent for 6 h. Western blot analysis for phospho-eIF2α, total eIF2α, CHOP and β-Tubulin. RT-PCR analysis of XBP1 and XBP1 splice variant and GAPDH transcripts.
# (D) Western blot analysis of HMLER_shGFP and HMLER_Twist cells treated with vehicle (DMSO), DTT or A23187 for 4 h and probed for p-eIF2α, total eIF2α, CHOP and β-Tubulin (loading control). RT-PCR analysis of XBP1 and XBP1 splice variant and GAPDH transcripts.
# (E) Western blot analysis of HMLER_shGFP and HMLER_Twist cells treated with vehicle (DMSO), Tunicamycin or Thapsigargin for 4 h and probed for p-eIF2α, total eIF2α, CHOP and β-Tubulin (loading control). RT-PCR analysis of XBP1 and XBP1 splice variant and GAPDH transcripts.
# Reporter activity for each cell line was normalized relative to DMSO treatment.
# BIP expression was normalized relative to GAPDH for each sample.
# (C) ATF6 activation of HMLER_shGFP and HMLER_Twist cells in response to Tunicamycin, Thapsigargin, DTT and A23187 were measured by ATF6 reporter assay. Reporter activity for each cell line was normalized relative to DMSO treatment.
# (D) qPCR analysis for BIP expression in HMLER_shGFP and HMLER_Twist cells treated with Thapsigargin and DTT. BIP expression was normalized relative to GAPDH for each sample.
# (E) qPCR analysis for expression of GADD34 in HMLER_shGFP and HMLER_Twist cells treated with Thapsigargin and DTT. GADD34 expression was normalized relative to GAPDH for each sample.
# Western blotting was performed as previously described (Gupta et al., 2009). Antibodies used for immunoblotting were as follows: E-cadherin (BD Transduction), Fibronectin (Abcam), Actin, Cytokeratin 8/18, PERK, eIF2α, peIF2α, CHOP, Caspase-3 and Bip (Cell Signal Technology).
# p5xATF6-GL3 and hRluc constructs were obtained from Addgene (plasmids 11976 and 24348, provided by Drs. Ron Prywes and Liqun Luo, resp.). 24 hours after co-transfection of 0.3 μg p5xATF6-GL3 and 0.05 μg hRluc plasmids, cells were treated with indicated compounds for another 6 hours, and ATF6 activity was measured by a dual luciferase assay (Promega).
# [3] = test system: protein secretion of HMLE cells; assay: 35S-methionine/cysteine labeling of secreted proteins, HMLE cells; format: cell-based, human; conditions: control experiment; data not shown
# Method: (F) Autoradiograph showing ^35S-methionine/cysteine-labeled secreted proteins in IDMS (HMLE_shEcad, HMLE_Twist) and control (HMLE_shGFP) cells. Secreted proteins were harvested at the indicated time points. Quantification of signal in each lane is provided in arbitrary units. The indicated proteins were identified by mass-spectrometry.
# (§2) Equal numbers of cells were cultured in the presence of ^35S-methionine/cysteine in medium with reduced methionine/cysteine content and minimal serum. At the indicated timepoints, aliquots of medium were extracted for analysis. Medium was centrifuged at 800×g for 2 min to pellet any whole cell contaminants. Equal volume of medium was reduced in loading buffer, separated by SDS-PAGE and analyzed by autoradiography.
# To determine whether overall protein secretion was elevated in IDMS cells, total protein synthesis and secretion was measured using ^35S-methionine/cysteine. Labeled proteins secreted by cells into the culture medium (“secretome”) were visualized by gel electrophoresis and autoradiography. After three hours of ^35S-methionine/cysteine labeling, we observed a 9.6-fold and 13.7-fold increase in the secretome of IDMS cells (HMLE_shEcad and HMLE_Twist, resp.) relative to the control epithelial cells (FIG. 4F).
# [4] = test system: HMLER_shGFP and HMLER_Twist cells; assay: Viability with thapsigargin in presence or absence of salubrinal; format: cell-based, human; conditions: 10 μM salubrinal, 3 days; FIG. 6F
# Method: (F) Relative viability of HMLER_shGFP and HMLER_Twist cells treated with increasing doses of thapsigargin in the presence or absence of 10 μM salubrinal for 3 days. Cell viability was assayed with an ATP-based luminescence assay.
# as §1
# [5] = test system: HMLE_Twist_GFP / HMLE_shEcad_GFP cells mixed 1:1 with HMLE_shGFP_dsRed cells; assay: Co-culture of GFP-labeled IDMS cells with dsRed-labeled control epithelial cells; format: cell-based, human; conditions: 1:1 co-culture, 5 days treatment; FIGS. 1D and E
# Method: (D) Representative fluorescence images of HMLE_shGFP_dsRed and HMLE_Twist_GFP cells were mixed in a 1:1 ratio and treated with 5 nM Paclitaxel, 2 μM Cmp302, 2 μM Cmp308 or DMSO control. Images after 5 days of treatment are shown. Scale bar: 50 μm
# (E) Quantification of HMLE_shGFP_dsRed and HMLE_shEcad_GFP cells that were mixed in a 1:1 ratio and treated with Doxorubicin or Dev4. Following a 5 day treatment, the percentages of dsRed-positive and GFP-positive cells were quantified by FACS.
# Even though Cmp302 and Cmp308 were selective for IDMS cells when cultured alone, tumors are comprised of heterogeneous populations of cells that could affect the sensitivity or selectivity of the applied chemicals. Therefore GFP-labeled IDMS cells were co-cultured with dsRed-labeled control epithelial cells and then applied Cmp302 and Cmp308.
# [6] = test system: MDA-MB-157 cells (CD44hiCD24lo and CD44loCD24hi fractions); assay: Flow cytometry of CD44/CD24 fractions of treated MDA-MB-157 cells; format: cell-based, human; conditions: suspension, 36 h; FIG. 1J
# Method: (J) MDA-MB-157 cells were treated with Cmp308, paclitaxel or DMSO solvent in suspension for 36 h and analyzed by flow cytometry for CD44 and CD24 expression. The percentage of CD44^hiCD24^lo and CD44^loCD24^hi cells in were quantified and normalized relative to DMSO controls.
# FACS analysis was performed according to the manufacturer's protocol (BD Biosciences). Reagents used in FACS were as follows: APC-conjugated anti-CD44 antibody (clone G44-26), PE-conjugated anti-CD24 antibody (clone ML5), and propidium iodide (5 μg/ml) (BD Bioscience).
# MDA-MB-157 cells = assay: Dose-response cell survival of MDA-MB-157 cells in suspension versus adherent culture; format: cell-based, human; conditions: 3 days; FIG. 1I
# Method: (I) Dose-response curves of MDA-MB-157 cells cultured in adherent or suspension conditions and treated with 8 doses of paclitaxel, Cmp302 or Cmp308 for 3 days. Cell survival was determined using an ATP-based luminescence assay.
# as §1
# Next, it was determined whether the preferential toxicity of these compounds was unique to the oncogenic modifications of the HMLE breast epithelial cell system. Accordingly, a model was developed in which human breast carcinoma cells progressed towards the IDMS state in the absence of genetic modifications by altering their extracellular contextual signals. […] However, this line adopts an IDMS state when detached from its substratum and cultured in suspension (FIG. 1F). […] This morphologic alteration was accompanied by upregulation of mesenchymal markers (fibronectin) and downregulation of epithelial proteins (cytokeratin 8/18 and E-cadherin) (FIG. 1G). […]
# [7] = test system: protein secretion of SUM159 cells; assay: 35S-methionine/cysteine labeling of secreted proteins, pretreated SUM159 cells; format: cell-based, human; conditions: pretreatment 3 days, recovery 3 days
# Method: (B) Autoradiograph showing ^35S-methionine/cysteine-labeled secreted proteins in SUM159 cells that were pretreated with 1 μg/ml Tunicamycin, 10 nM Thapsigargin, 0.1 μM A23187 or DMSO vehicle for 3 days and allowed to recover in the absence of chemical for 3 days prior to the ^35S-methionine/cysteine labeling.
# as §2
# SUM159 cancer cells [8] = assay: Tumorsphere formation of pretreated SUM159 cells; format: cell-based, human; conditions: pretreatment 3 days (1 μg/ml Tunicamycin, 10 nM Thapsigargin), 3 days recovery
# Method: (A) Representative brightfield images and quantification of tumorsphere formation of SUM159 cancer cells treated with 5 nM Paclitaxel, 1 μg/ml Tunicamycin, 10 nM Thapsigargin, or DMSO vehicle for 3 days followed by another 3 days of recovery in regular medium. Scale bar: 50 μm
# Mammosphere formation assays were performed as described (Dontu et al., 2003), but with 0.6% methylcellulose (Stem Cell Technologies). Five thousand cells were plated per well in low-adherence 24-well plates and cultured for 5-8 days prior to being counted and photographed.
# (§3) To determine whether chemical ER perturbants could abrogate the malignancy of IDMS cells, SUM159 cancer cells (derived from a primary anaplastic Basal-B breast carcinoma) were treated with tunicamycin, thapsigargin or paclitaxel at their respective IC75 doses. Cells were then allowed to recover in the absence of treatment prior to subjecting them to functional assays for IDMS-related phenotypes.
# SUM159 cells = assay: Dose-response of pretreated SUM159 cells to paclitaxel or doxorubicin; format: cell-based, human; conditions: pretreated SUM159, then paclitaxel or doxorubicin 3 days; FIG. 7D
# Method: (D) Dose-response curves of SUM159 cells pre-treated as in (C) and then treated with 8 doses of paclitaxel or doxorubicin for 3 days. Cell survival was determined using an ATP-based luminescence assay.
# as §1
# SUM159 cancer cells [9] = assay: Transwell migration of pretreated SUM159 cells; format: cell-based, human; conditions: 5 h migration
# Method: (B) Representative images of crystal violet staining of SUM159 cells following transwell migration assay. Transwell migration assay was performed on SUM159 cancer cells treated as in (A). Cells that have migrated for 5 h following seeding into 8 μm pore inserts were visualize and quantified. Scale bar: 50 μm
# as §3
# [10] = 6 h treatment (Cmp302, Dev4, Dev2) or 4 h (DTT, A23187, tunicamycin, thapsigargin), IDMS versus non-IDMS cells
compound,measurement,setting,value
"O[C@H](CS)[C@H](O)CS (racemic) [DTT, dithiothreitol]",killing of IDMS cells relative to control HMLE cells,[1],selective lethality
same,"UPR signaling (XBP1 splicing, eIF2α phosphorylation, ATF6 activation)",[2]; [10],selectively induced
CNc1ccc2oc(C[C@H]3O[C@@]4(CC[C@H]3C)O[C@H]([C@H](C)C(=O)c3ccc[nH]3)[C@H](C)C[C@H]4C)nc2c1C(=O)O [A23187],killing of IDMS cells relative to control HMLE cells,[1],selective lethality
same,"UPR signaling (XBP1 splicing, eIF2α phosphorylation, ATF6 activation)",[2],selectively induced
"C[C@H]1CCC/C=C/[C@@H]2C[C@H](O)C[C@H]2[C@H](O)/C=C/C(=O)O1 [Brefeldin-A, Brefeldin A]",protein secretion,[3],completely abolished protein secretion
"O=C(/C=C/c1ccccc1)NC(NC(=S)Nc1cccc2cccnc12)C(Cl)(Cl)Cl (centres unmarked) [Salubrinal, salubrinal]",sensitization to thapsigargin treatment,[4],"further sensitized HMLER-Twist IDMS, but not control cells"
COc1cccc2c1C(=O)c1c(O)c3c(c(O)c1C2=O)C[C@@](O)(C(=O)CO)C[C@@H]3O[C@H]1C[C@H](N)[C@H](O)[C@H](C)O1 [doxorubicin],effect on IDMS cells in mixed populations,[5],selective expansion of IDMS cells
CC(=O)O[C@H]1C(=O)[C@@]2(C)[C@H]([C@H](OC(=O)c3ccccc3)[C@]3(O)C[C@H](OC(=O)[C@H](O)[C@@H](NC(=O)c4ccccc4)c4ccccc4)C(C)=C1C3(C)C)[C@]1(OC(C)=O)CO[C@@H]1C[C@@H]2O [paclitaxel],preferential toxicity towards CD44hiCD24lo versus CD44loCD24hi fraction,[6],did not exhibit this preferential toxicity
same,effect on IDMS cells in mixed populations,[5],selective expansion of IDMS cells
same,toxicity towards IDMS MDA-MB-157 cells in suspension relative to non-IDMS cells in adherent conditions,MDA-MB-157 cells,decreased toxicity
C/C=C(/C)C(=O)O[C@H]1C(C)=C2[C@H]([C@@H]1OC(=O)CCCCCCC)[C@@](C)(OC(C)=O)C[C@H](OC(=O)CCC)[C@@]1(O)[C@H]2OC(=O)[C@@]1(C)O [thapsigargin],killing of IDMS cells relative to control HMLE cells,[1],selective lethality
same,"UPR signaling (XBP1 splicing, eIF2α phosphorylation, ATF6 activation)",[2]; [10],selectively induced
same,protein secretion relative to paclitaxel- and DMSO-treated cells,[7],strongly inhibited
same,tumorsphere-forming ability relative to paclitaxel- or DMSO-treated cells,SUM159 cancer cells [8],significantly reduced
same,sensitization of pretreated cells to chemotherapy,SUM159 cells,sensitized SUM159 cells to paclitaxel and doxorubicin
same,migratory ability relative to paclitaxel-pretreated cells,SUM159 cancer cells [9],strongly impaired
tunicamycin,IC50 (toxicity),"[1]; both IDMS and control HMLE cells, data not shown",< 10^−10 g/ml
same,"UPR signaling (XBP1 splicing, eIF2α phosphorylation, ATF6 activation)",[2]; [10],more readily induced in IDMS cells
same,dose required for UPR induction relative to toxic dose,"[2]; IDMS cells, FIG. 3E",100 fold
same,protein secretion relative to paclitaxel- and DMSO-treated cells,[7],strongly inhibited
same,tumorsphere-forming ability relative to paclitaxel- or DMSO-treated cells,SUM159 cancer cells [8],significantly reduced
same,sensitization of pretreated cells to chemotherapy,SUM159 cells,sensitized SUM159 cells to paclitaxel and doxorubicin
same,migratory ability relative to paclitaxel-pretreated cells,SUM159 cancer cells [9],strongly impaired
